Laboratory results taken from the supplement of paper PMC10307832.

Legend:
Assay in all cases: relative viability (nuclei count vs DMSO), 5 days (fraction); higher = more cells survive
TGX 221 + Trametinib = compound: CC1=CN2C(=O)C=C(N=C2C(=C1)C(C)NC3=CC=CC=C3)N4CCOCC4 [TGX 221] + CC(=O)Nc1cccc(-n2c(=O)n(C3CC3)c(=O)c3c(Nc4ccc(I)cc4F)n(C)c(=O)c(C)c32)c1 [Trametinib] (partner 0.02 µM)
Procedure, shortened: (§1)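 Medians of duplicate plates are given as relative viability. That measure is the nuclei count in treated wells divided by the count in vehicle wells. Counts were taken on 4× images of lung cancer cell lines in 1536-well plates, 5 days after pin-tool dosing the day after seeding with one drug alone or a fixed anchor-drug dose plus five library-drug doses (not always all listed) in √10 steps.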

TGX 221 + Dasatinib = compound: CC1=CN2C(=O)C=C(N=C2C(=C1)C(C)NC3=CC=CC=C3)N4CCOCC4 [TGX 221] + Cc1nc(Nc2ncc(C(=O)Nc3c(C)cccc3Cl)s2)cc(N2CCN(CCO)CC2)n1 [Dasatinib] (partner 0.075 µM)
Procedure, shortened: as §1

[1] = compound: C1=CC=C(C(=C1)C2=CC=C(C=C2)C3=CSC4=C3C(=C(C(=O)N4)C#N)O)O + CS(=O)(=O)CCNCc1ccc(-c2ccc3ncnc(Nc4ccc(OCc5cccc(F)c5)c(Cl)c4)c3c2)o1 [Lapatinib] (partner 2 µM)
Procedure, shortened: as §1

TGX 221 + Lapatinib = compound: CC1=CN2C(=O)C=C(N=C2C(=C1)C(C)NC3=CC=CC=C3)N4CCOCC4 [TGX 221] + CS(=O)(=O)CCNCc1ccc(-c2ccc3ncnc(Nc4ccc(OCc5cccc(F)c5)c(Cl)c4)c3c2)o1 [Lapatinib] (partner 2 µM)
Procedure, shortened: as §1

Cell Line | relative viability (TGX 221 + Trametinib; first compound 0.08 µM) | relative viability (TGX 221 + Trametinib; first compound 0.253 µM) | relative viability (TGX 221 + Trametinib; first compound 0.8 µM) | relative viability (TGX 221 + Trametinib; first compound 2.53 µM) | relative viability (TGX 221 + Trametinib; first compound 8 µM) | relative viability (TGX 221 + Dasatinib; first compound 0.08 µM) | relative viability (TGX 221 + Dasatinib; first compound 0.253 µM) | relative viability (TGX 221 + Dasatinib; first compound 0.8 µM) | relative viability (TGX 221 + Dasatinib; first compound 2.53 µM) | relative viability (TGX 221 + Dasatinib; first compound 8 µM) | relative viability ([1]; first compound 0.08 µM) | relative viability ([1]; first compound 0.253 µM) | relative viability ([1]; first compound 0.8 µM) | relative viability ([1]; first compound 2.53 µM) | relative viability ([1]; first compound 8 µM) | relative viability (TGX 221 + Lapatinib; first compound 0.08 µM) | relative viability (TGX 221 + Lapatinib; first compound 0.253 µM) | relative viability (TGX 221 + Lapatinib; first compound 0.8 µM) | relative viability (TGX 221 + Lapatinib; first compound 2.53 µM) | relative viability (TGX 221 + Lapatinib; first compound 8 µM)
NCI-H2342 | 0.814 | 0.763 | 0.8 | 0.632 | 0.93 | 0.286 | 0.339 | 0.314 | 0.292 | 0.299 |  |  |  |  |  |  |  |  |  | 
SK-LU-1 | 0.483 | 0.672 | 0.542 | 0.356 | 0.41 | 0.203 | 0.181 | 0.165 | 0.129 | 0.128 | 0.977 | 1.1 | 0.685 | 1.05 | 0.682 | 0.883 | 0.951 | 0.754 | 0.898 | 0.682
NCI-H2023 | 0.55 | 0.397 | 0.603 | 0.469 | 0.35 | 0.481 | 0.481 | 0.592 | 0.537 | 0.407 | 0.925 | 0.94 | 0.579 | 0.729 | 0.88 | 0.79 | 0.718 | 0.73 | 0.689 | 0.769
NCI-H1299 |  |  |  |  |  |  |  |  |  |  | 0.923 | 0.929 | 0.987 | 0.961 | 0.948 | 0.987 | 0.99 | 0.978 | 1.03 | 0.894
LOU-NH91 | 0.818 | 0.741 | 0.756 | 0.774 | 0.709 | 0.561 | 0.541 | 0.535 | 0.571 | 0.529 | 0.751 | 0.807 | 0.788 | 0.601 | 0.738 | 0.71 | 0.814 | 0.751 | 0.728 | 0.739
LCLC-103H | 0.65 | 0.639 | 0.626 | 0.683 | 0.651 | 0.359 | 0.438 | 0.446 | 0.344 | 0.307 |  |  |  |  |  |  |  |  |  | 
SW 1573 | 0.518 | 0.429 | 0.567 | 0.382 | 0.442 | 0.402 | 0.501 | 0.403 | 0.406 | 0.574 | 0.991 | 1.12 | 1.21 | 1.11 | 0.862 | 1.01 | 1.01 | 1.1 | 0.852 | 1.12
NCI-H1755 | 0.792 | 0.743 | 0.646 | 0.647 | 0.628 | 0.406 | 0.371 | 0.366 | 0.317 | 0.317 | 0.938 | 1.11 | 0.875 | 1.11 | 1.1 | 1.06 | 1.02 | 1.01 | 0.974 | 0.943
COR-L 105 | 0.501 | 0.431 | 0.482 | 0.43 | 0.419 | 0.286 | 0.252 | 0.264 | 0.406 | 0.23 | 0.4 | 0.353 | 0.34 | 0.344 | 0.345 | 0.409 | 0.333 | 0.394 | 0.394 | 0.325
NCI-H1793 | 0.462 | 0.374 | 0.398 | 0.357 | 0.306 | 0.344 | 0.289 | 0.363 | 0.48 | 0.381 | 0.583 | 0.765 | 0.825 | 0.701 | 0.598 | 0.633 | 0.624 | 0.721 | 0.58 | 0.456
EMC-BAC-2 | 0.826 | 1.02 | 0.897 | 0.864 | 0.792 | 0.279 | 0.306 | 0.321 | 0.315 | 0.351 | 0.76 | 1 | 0.917 | 0.894 | 0.812 | 0.841 | 0.83 | 0.894 | 0.903 | 0.874
H3255 | 0.583 | 0.537 | 0.538 | 0.576 | 0.529 | 0.257 | 0.417 | 0.355 | 0.307 | 0.342 | 0.231 | 0.292 | 0.231 | 0.235 | 0.25 | 0.301 | 0.225 | 0.24 | 0.277 | 0.211
PC-14 | 0.666 | 0.701 | 0.701 | 0.717 | 0.515 | 0.246 | 0.22 | 0.3 | 0.272 | 0.221 | 0.287 | 0.38 | 0.3 | 0.256 | 0.269 | 0.334 | 0.269 | 0.289 | 0.28 | 0.26
NCI-H661 | 0.584 | 0.544 | 0.569 | 0.591 | 0.495 | 0.945 | 0.831 | 0.803 | 0.876 | 0.828 | 0.446 | 0.481 | 0.501 | 0.507 | 0.382 | 0.486 | 0.376 | 0.439 | 0.382 | 0.394
HARA | 0.722 | 0.655 | 0.715 | 0.614 | 0.429 | 0.207 | 0.254 | 0.289 | 0.26 | 0.315 |  | 1.03 | 0.821 | 0.762 | 0.738 | 0.788 | 0.722 | 0.707 | 0.662 | 0.766
COR-L23 | 0.507 | 0.592 | 0.573 | 0.577 | 0.523 | 0.483 | 0.457 | 0.538 | 0.488 | 0.431 | 0.772 | 1.22 | 0.834 | 1.11 | 0.712 | 0.886 | 0.923 | 1.02 | 1.11 | 0.938
SK-MES-1 | 0.526 | 0.572 | 0.449 | 0.379 | 0.339 | 0.315 | 0.275 | 0.305 | 0.223 | 0.162 | 0.435 | 0.51 | 0.441 | 0.457 | 0.463 | 0.487 | 0.414 | 0.422 | 0.39 | 0.381
